Reference: patent publication US20210169871A1, “PHARMACEUTICAL COMPOSITIONS WITH REDUCED TERT-BUTANOL LEVELS” (TARVEDA THERAPEUTICS, INC., priority 2018, published 2021)
Marks after values point to notes of the source that are not given here.

What was measured:
[1] = pH-dependent lactone / open ring carboxylic acid equilibrium in solution; type: physicochemical
Text: In solution, SDC-TRAP-0063 contains a lactone ring at pH-dependent equilibrium with the corresponding open chain carboxylic acid form. At high pH (above pH of around 9) the equilibrium shifts toward an open ring carboxylic acid form and at low pH it shifts toward the closed ring lactone form.
During the manufacturing process, SDC-TRAP-0063 is converted to SDC-TRAP-0063 Sodium, which is the dominant form at pH above approximately 9.3. SDC-TRAP-0063 Sodium drug product is aseptically manufactured as a sterile-filtered solution that is lyophilized. […] There is minimal impact from annealing or secondary drying modifications on TBA level in SDC-TRAP-0063 Sodium drug product.

[2] = Residual TBA in lyophilized drug product by gas chromatography (GC-HS); type: physicochemical; parameters: key to Residual TBA: TBA weight percentage in dry powder
Method: SDC-TRAP-0063 synthesized in Example 1 was dissolved in an alkaline co-solvent system comprising 30% (by volume) tert-butanol (TBA) and water to obtain a drug solution. Various polyols, such as PEG, glycerol and propylene glycol (PG), were added to the drug solution in vials prior to the standard lyophilization cycle (freezing→annealing→primary drying→secondary drying). Dry powder drug products comprising SDC-TRAP-0063 sodium were obtained. TBA weight percentages in the dry powders were measured by gas chromatography (GC-HS) (Table 1).

[3] = Stability of SDC-TRAP-0063 sodium with added excipients
[4] = Residual moisture of lyophilized drug product; type: physicochemical; conditions: 100 mg/mL, 30% TBA, 4% PEG 400; Standard cycle (Table 2)
[5] = Residual TBA in lyophilized drug product by gas chromatography (GC-HS); type: physicochemical; parameters: key: TBA weight percentage in dry powder; conditions: 100 mg/mL
[6] = pH, testing of lyophilized drug product; type: physicochemical
[7] = 100 mg/mL, 15% TBA, 3% PEG 400, NaOH 5.5 g/100 g (Table 3)
[8] = 100 mg/mL, 15% TBA, 6% Mannitol (Table 4)
[9] = 100 mg/mL, 30% TBA, 1% glycerol, standard lyophilization cycle (Table 1)
[10] = 100 mg/mL, 30% TBA, 2% PG, standard lyophilization cycle (Table 1)
[11] = 100 mg/mL, 30% TBA, 2% glycerol, standard lyophilization cycle (Table 1)
[12] = 100 mg/mL, 30% TBA, 3% PEG 400, NaOH 5.5 g/100 g (Table 3)
[13] = 100 mg/mL, 30% TBA, 3% PEG 400, standard lyophilization cycle (Table 1)
[14] = 100 mg/mL, 30% TBA, 3% glycerol, Standard cycle (Table 2)
[15] = 100 mg/mL, 30% TBA, 3.5% PEG 400, Standard cycle (Table 2)
[16] = 100 mg/mL, 30% TBA, 3.5% glycerol, Standard cycle (Table 2)
[17] = 100 mg/mL, 30% TBA, 4% PEG 400, BnOH 0.1 mg/vial, NaOH 5.5 g/100 g (Table 3)
[18] = 100 mg/mL, 30% TBA, 4% PEG 400, NaOH 5 g/100 g (Table 3)
[19] = 100 mg/mL, 30% TBA, 4% PEG 400, NaOH 5.5 g/100 g (Table 3)
[20] = 100 mg/mL, 30% TBA, 4% PEG 400, Standard cycle (Table 2)
[21] = 100 mg/mL, 30% TBA, 4% PEG 400, standard lyophilization cycle (Table 1)
[22] = 100 mg/mL, 30% TBA, 4% PEG 1000 (Table 4)
[23] = 100 mg/mL, 30% TBA, 4% PEG 2000 (Table 4)
[24] = 100 mg/mL, 30% TBA, 4% PEG 4000 (Table 4)
[25] = 100 mg/mL, 30% TBA, 4% PG, standard lyophilization cycle (Table 1)
[26] = 100 mg/mL, 30% TBA, 4% glycerol, Standard cycle (Table 2)
[27] = 100 mg/mL, 30% TBA, 4% glycerol, standard lyophilization cycle (Table 1)

CCc1c2c(nc3ccc(OC(=O)N4CCC(CCn5ccc6cc(-n7c(O)nnc7-c7cc(C(C)C)c(O)cc7O)ccc65)CC4)cc13)-c1cc3c(c(=O)n1C2)COC(=O)[C@]3(O)CC [SDC-TRAP-0063, (S)-4,11-diethyl-4-hydroxy-3,14-dioxo-3,4,12,14-tetrahydro-1H-pyrano[3′,4′:6,7]indolizino[1,2-b]quinolin-9-yl 4-(2-(5-(3-(2,4-dihydroxy-5-isopropylphenyl)-5-hydroxy-4H-1,2,4-triazol-4-yl)-1H-indol-1-yl)ethyl)piperidine-1-carboxylate]
Solubility in water (Solubility in water): does not have good solubility in water
pH above which equilibrium shifts toward open ring carboxylic acid form [1]: around 9
Residual TBA [2, 7]: 3.3%
Residual TBA [2, 8]: 6.6%
Residual TBA ([2]; 100 mg/mL, 30% TBA, 0% PEG 400, 0% glycerol, Standard cycle, average (Table 2)): 7% avg
Residual TBA ([2]; 100 mg/mL, 30% TBA, 0% PEG 400, BnOH 0 mg/vial, NaOH 0 g/100 g, average (Table 3)): 7% avg
Residual TBA ([2]; 100 mg/mL, 30% TBA, 0% PEG 1000, 0% PEG 2000, 0% PEG 4000, 0% Mannitol, average (Table 4)): 7% avg
Residual TBA [2, 9]: 7.1%
Residual TBA [2, 10]: 4.1%
Residual TBA [2, 11]: 5.2%
Residual TBA [2, 12]: 4.1%
Residual TBA [2, 13]: 3.6%
Residual TBA [2, 14]: 3.8%
Residual TBA [2, 15]: 3.3%
Residual TBA [2, 16]: 3.3%
Residual TBA ([2]; 100 mg/mL, 30% TBA, 4% PEG 400, 5% Mannitol (Table 5)): 0.54
Residual TBA ([2]; 100 mg/mL, 30% TBA, 4% PEG 400, 7.5% Mannitol (Table 5)): 1.36
Residual TBA ([2]; 100 mg/mL, 30% TBA, 4% PEG 400, 10% Mannitol (Table 5)): 2.22
Residual TBA [2, 17]: 2.4%
Residual TBA [2, 18]: 1.9%
Residual TBA [2, 19]: 2.2%
Residual TBA [2, 20]: 2.7%
Residual TBA [2, 21]: 2.0%
Residual TBA [2, 22]: 2.3%
Residual TBA [2, 23]: 2.2%
Residual TBA [2, 24]: 2.3%
Residual TBA [2, 25]: 1.5%
Residual TBA [2, 26]: 1.8%
Residual TBA [2, 27]: 1.2%
Residual TBA ([2]; 100 mg/mL, 30% TBA, 5% PEG 400, 5% Mannitol (Table 5)): 0.11
Residual TBA ([2]; 100 mg/mL, 30% TBA, 5% PEG 400, 7.5% Mannitol (Table 5)): 0.26
Residual TBA ([2]; 100 mg/mL, 30% TBA, 5% PEG 400, 10% Mannitol (Table 5)): 0.74
Residual TBA ([2]; 100 mg/mL, 30% TBA, 6% PEG 400, 5% Mannitol (Table 5), below the limit of quantitation of the method): 0.05*
Residual TBA ([2]; 100 mg/mL, 30% TBA, 6% PEG 400, 7.5% Mannitol (Table 5), below the limit of quantitation of the method): 0.09*
Residual TBA ([2]; 100 mg/mL, 30% TBA, 6% PEG 400, 10% Mannitol (Table 5)): 0.16
Residual TBA with 4% PEG-400 ([2]; 4% of PEG-400): 2.5-2.7%
Residual TBA ([2]; pre-lyophilization solution 100 mg/mL, 30% TBA, 0% PEG 400, 0% glycerol, 0% PG, standard lyophilization cycle, average): 7% avg
Stability profile with 4% PEG-400 ([3]; 4% of PEG-400): stability profile is acceptable
Stability profile with glycerol as excipient ([3]; glycerol as excipient, compared with PEG-400): slightly worse stability profile
Residual Moisture [4]: 0.26%
Residual TBA ([5]; 15% TBA, 4% Mannitol (Table 4)): 6.0%
Residual TBA ([5]; 30% TBA, 3% glycerol, No secondary drying (Table 2)): 4.0%
Residual TBA ([5]; 30% TBA, 3.5% PEG 400, No secondary drying (Table 2)): 3.2%
pH [6, 7]: 10.0
pH ([6]; 100 mg/mL, 15% TBA, 4% Mannitol (Table 4)): 9.8
pH [6, 8]: 9.8
pH ([6]; 100 mg/mL, 30% TBA, 0% PEG 400, 0% glycerol, Standard cycle (Table 2)): 10.1-10.3
pH ([6]; 100 mg/mL, 30% TBA, 0% PEG 400, BnOH 0 mg/vial, NaOH 0 g/100 g (Table 3)): 10.1-10.3
pH ([6]; 100 mg/mL, 30% TBA, 0% PEG 1000, 0% PEG 2000, 0% PEG 4000, 0% Mannitol (Table 4)): 10.1-10.3
pH [6, 9]: 10.2
pH [6, 10]: 10.2
pH [6, 11]: 10.2
pH [6, 12]: 9.9
pH [6, 13]: 10.1
pH ([6]; 100 mg/mL, 30% TBA, 3% glycerol, No secondary drying (Table 2)): 10.1
pH [6, 14]: 10.1
pH ([6]; 100 mg/mL, 30% TBA, 3.5% PEG 400, No secondary drying (Table 2)): 10.1
pH [6, 15]: 10.0
pH [6, 16]: 10.1
pH [6, 17]: 10.0
pH [6, 18]: 9.5
pH [6, 19]: 9.9
pH [6, 20]: 10.1
pH [6, 21]: 10.1
pH [6, 22]: 9.7
pH [6, 23]: 9.9
pH [6, 24]: 9.8
pH [6, 25]: 10.1
pH [6, 26]: 10.1
pH [6, 27]: 10.2
pH ([6]; pre-lyophilization solution 100 mg/mL, 30% TBA, 0% PEG 400, 0% glycerol, 0% PG, standard lyophilization cycle): 10.1-10.3

CCc1c2c(nc3ccc(OC(=O)N4CCC(CCn5ccc6cc(-n7c(O)nnc7-c7cc(C(C)C)c(O)cc7O)ccc65)CC4)cc13)-c1cc([C@@](O)(CC)C(=O)[O-])c(CO)c(=O)n1C2.[Na+] [SDC-TRAP-0063 sodium, Sodium (S)-2-(2-((4-(2-(5-(3-(2,4-dihydroxy-5-isopropylphenyl)-5-hydroxy-4H-1,2,4-triazol-4-yl)-1H-indol-1-yl)ethyl)piperidine-1-carbonyl)oxy)-12-ethyl-8-(hydroxymethyl)-9-oxo-9,11-dihydroindolizino[1,2-b]quinolin-7-yl)-2-hydroxybutanoate]
pH above which SDC-TRAP-0063 Sodium is the dominant form ([1]; manufacturing process): approximately 9.3
Stability with PEG-400 addition ([3]; PEG-400 added as excipient): no impact on the stability
Stability with propylene glycol addition ([3]; propylene glycol added as excipient): faster decay
